This is an account of results in US20150223457A1, “METHOD OF COMBATTING SOYBEAN SUDDEN DEATH SYNDROME USING SUBSTITUTED PYRAZOLAMIDES” (Syngenta Participations AG, priority 2012, published 2015).

Experiment [1] has as its system Fusarium virguliforme. Kind of experiment: Sensitivity of F. virguliforme isolates: mycelial growth inhibition on amended potato dextrose agar plates. It counts as cell-based. To be noted: for ED50 (effective dose for 50% of the fungal growth inhibition): potato dextrose agar, 20° C., 9 days. As for the experimental part: The sensitivity of 4 F. virguliforme isolates to the compound No. 1.001 was determined by comparing the mycelial growth inhibition of on potato dextrose agar plates amended or not with the compound No. 1.001. The compound No. 1.001 was tested at the following concentrations: 0, 0.001, 0.01, 0.1, 1 and 10 mg.ai./L. The fungicide fludioxonil (commercial formulation Maxim 4 FS) was included in the sensitivity study. The plates were incubated at 20° C. for 9 days. The sensitivity test was set in a completely randomized design with 2 replications for each concentration of fungicide tested. Data obtained for each isolate was transformed using an arcsine transformation. The effective dose for 50% of the fungal growth inhibition (ED50 values) was calculated by regressing the transformed growth inhibition data against the log of the fungicide concentration.

Experiment [2] has as its system Fusarium virguliforme. The experiment is described as follows: Seed treatment efficacy against soybean sudden death syndrome (inoculated seeds in rolled paper towels). It counts as in vivo. To be noted: fungicide rate 2.5 mg a.i./100 kg seed; soybean cultivar S36-B6, isolate 10-118, hypocotyls and roots, 19 days at 18° C., mean of 3 replications. As for the experimental part:
A study was conducted to determine the efficacy of the compound No. 1.001 against F. virguliforme the causal agent of the sudden death syndrome on soybeans. Soybean seeds of the cultivar S36-B6 were treated with the compound No. […] […] Ten soybean seeds were placed on a paper towel (Scotts paper towels, 25.4 cm×33.02 cm in size) that has been previously moistened with 40 milliliters of water. Seeds were inculated with 100 microliters of a F. virguliforme conidial suspension adjusted to 100,000 conidia per milliliter of water. The isolate with the identification number 10-118 of F. virguliforme was used used in this study since it is sensitive to fludioxonil. Inoculated seeds seeds were then covered with another paper towel. Starting at one end, the paper towels with seeds were rolled loosely in a cylinder-fashion. The rolled paper towels with the inoculated seeds were placed into a zipped plastic bag. Bags were labelled with the fungicide treatment and dated. Bags with seeds were then placed in a growth room at a temperature of 18° C. and 12 h photoperiod for 19 days. The study was conducted using a completely randomized design with 3 replications. Disease severity was conducted on the hypocotyls and roots and measured as percentage.

Bounds are passed on as bounds.

For `N#Cc1c[nH]cc1-c1cccc2c1OC(F)(F)O2` [Fludioxonil, fludioxonil], the “ED50 (effective dose for 50% of the fungal growth inhibition)” value in the experiment with Fusarium virguliforme [1] (isolate 10-118) is given as 0.206 mg ai/L; in the experiment on Fusarium virguliforme [1] (isolate 10-119), above 10 mg ai/L; in the experiment on Fusarium virguliforme [1] (isolate 10-120) it was above 10 mg ai/L; in the experiment on Fusarium virguliforme [1] (isolate 10-230) it was above 10 mg ai/L. In the experiment on Fusarium virguliforme [1] (one isolate of 4), the “sensitivity of isolate to the fungicide (in words)” value is listed as “sensitive”. The “dose response of isolates to the fungicide (in words)” value in the experiment on Fusarium virguliforme [1] (the other 3 isolates of 4) is recorded as “not a dose response”. For the same compound, the “% disease severity” value in the experiment with Fusarium virguliforme [2] amounted to 20.9%.
